US20250032460A1, “METHODS OF TREATING NEUROLOGICAL DISORDERS” (MapLight Therapeutics, Inc., priority 2021, published 2025)

Legend:
[1] = Clinical observations during 7-day oral dosing in beagle dogs; details: for Clinical Observation: Group 2: fesoterodine fumarate 3 mg/kg/day PO, individual dog
salivation = assay: Single ascending dose study: salivation (pharmacodynamics); type: in vivo, healthy adult volunteers; details: Group 2: 8 mg fesoterodine fumarate 4 hours prior to 40 mg Compound 1, vs placebo pre-treatment (FIG. 2)
Experimental: MTD was established at the dose which produced mild to moderate cholinergic adverse effects. Cholinergic effects were monitored for each dose, including pupillometry and salivation.
Group 2 evaluated tolerability of Compound 1 at Group 1 MTD with or without fesoterodine fumarate co-administration. Subjects received 8 mg of fesoterodine fumarate tablet or matched placebo tablet 4 hours prior to administration of 40 mg of Compound 1.

[2] = tested on: Compound 1 induced salivation; assay: Fesoterodine dose-response antagonistic effect on Compound 1 induced salivation in anaesthetized rats; type: in vivo, Sprague Dawley rats
Experimental: An in vivo primary pharmacology study evaluating the fesoterodine fumarate dose-response antagonistic effect on Compound 1 induced salivation in anaesthetized male Sprague Dawley rats was conducted. […] Intravenous fesoterodine doses were administered at […]. Fesoterodine was dosed 10 minutes prior to dosage of Compound 1. All animals were normal with no observed abnormality detected in clinical signs or behavior. Salivation was measured by using oral dry swab in anesthetized rats with the calculated difference between the dry swab weight and the wet swab weight indicating the weight of saliva produced. Samples were collected post-dosing for one hour at 10-minute intervals.

[3] = Fesoterodine 0.0078 mg/mL IV 10 min prior to Compound 1 (1.5 mg/kg) IV
[4] = Fesoterodine 0.0156 mg/mL IV 10 min prior to Compound 1 (1.5 mg/kg) IV
[5] = Fesoterodine 0.0312 mg/mL IV 10 min prior to Compound 1 (1.5 mg/kg) IV
[6] = Fesoterodine 0.0625 mg/mL IV 10 min prior to Compound 1 (1.5 mg/kg) IV
[7] = Fesoterodine 0.125 mg/mL IV 10 min prior to Compound 1 (1.5 mg/kg) IV
[8] = Fesoterodine 0.25 mg/mL IV 10 min prior to Compound 1 (1.5 mg/kg) IV
[9] = Fesoterodine 0.5 mg/mL IV 10 min prior to Compound 1 (1.5 mg/kg) IV

Q: With `CC(C)C(=O)Oc1ccc(CO)cc1[C@H](CCN(C(C)C)C(C)C)c1ccccc1` [Fesoterodine, fesoterodine] as the molecule, how does the “peripheral side effects observed after dosing” value ([1]; Group 1 Compound 1 1.5 mg/kg/day PO alone, Group 3 with fesoterodine fumarate 3 mg/kg/day PO, 7 days) read?
A: substantially reduced the peripheral effects

Q: What about the “Clinical Observation” value ([1]; 7 day period) of the same molecule?
A: none

Q: And the “Clinical Observation” value ([1]; day 1)?
A: For D2001, miosis was found 1 hr 10 min after dosing on day 1. 2 hr

Q: And the “effect of fesoterodine pre-treatment on the increase in salivation post Compound 1 dosing” value (salivation; listed as fesoterodine)?
A: nearly abolished both subjective reports of hypersalivation and the objective increase in saliva volume

Q: And the “effect of fesoterodine pre-treatment on the increase in salivation post Compound 1 dosing” value (salivation; listed as fesoterodine fumarate)?
A: not observed

Q: And the “Salivation (mg) (mean value), 10 min” value [2, 3]?
A: 347.49 mg

Q: And the “Salivation (mg) (mean value), 20 min” value [2, 3]?
A: 90.03 mg

Q: And the “Salivation (mg) (mean value), 30 min” value [2, 3]?
A: 26.31 mg

Q: And the “Salivation (mg) (mean value), 40 min” value [2, 3]?
A: 10.29 mg

Q: And the “Salivation (mg) (mean value), 50 min” value [2, 3]?
A: 9.96 mg

Q: What about the “Salivation (mg) (mean value), 60 min” value [2, 3] of the same molecule?
A: 7.74 mg

Q: And the “Salivation (mg) (mean value), Total” value [2, 3]?
A: 491.83 mg

Q: What about the “Salivation (mg) (mean value), 10 min” value [2, 4] of the same molecule?
A: 163.43 mg

Q: What about the “Salivation (mg) (mean value), 20 min” value [2, 4] of the same molecule?
A: 69.8 mg

Q: And the “Salivation (mg) (mean value), 30 min” value [2, 4]?
A: 30.58 mg

Q: And the “Salivation (mg) (mean value), 40 min” value [2, 4]?
A: 16.26 mg

Q: What about the “Salivation (mg) (mean value), 50 min” value [2, 4] of the same molecule?
A: 11.66 mg

Q: What about the “Salivation (mg) (mean value), 60 min” value [2, 4] of the same molecule?
A: 5.71 mg

Q: And the “Salivation (mg) (mean value), Total” value [2, 4]?
A: 297.45 mg

Q: And the “Salivation (mg) (mean value), 10 min” value [2, 5]?
A: 95.37 mg

Q: What about the “Salivation (mg) (mean value), 20 min” value [2, 5] of the same molecule?
A: 61.86 mg

Q: And the “Salivation (mg) (mean value), 30 min” value [2, 5]?
A: 29.68 mg

Q: What about the “Salivation (mg) (mean value), 40 min” value [2, 5] of the same molecule?
A: 8.31 mg

Q: What about the “Salivation (mg) (mean value), 50 min” value [2, 5] of the same molecule?
A: 8.78 mg

Q: What about the “Salivation (mg) (mean value), 60 min” value [2, 5] of the same molecule?
A: 6.64 mg

Q: What about the “Salivation (mg) (mean value), Total” value [2, 5] of the same molecule?
A: 210.64 mg

Q: And the “Salivation (mg) (mean value), 10 min” value [2, 6]?
A: 66.8 mg

Q: And the “Salivation (mg) (mean value), 20 min” value [2, 6]?
A: 27.58 mg

Q: What about the “Salivation (mg) (mean value), 30 min” value [2, 6] of the same molecule?
A: 12.89 mg

Q: And the “Salivation (mg) (mean value), 40 min” value [2, 6]?
A: 9.18 mg

Q: What about the “Salivation (mg) (mean value), 50 min” value [2, 6] of the same molecule?
A: 6.56 mg

Q: And the “Salivation (mg) (mean value), 60 min” value [2, 6]?
A: 2.45 mg

Q: What about the “Salivation (mg) (mean value), Total” value [2, 6] of the same molecule?
A: 125.47 mg

Q: What about the “Salivation (mg) (mean value), 10 min” value [2, 7] of the same molecule?
A: 45.22 mg

Q: What about the “Salivation (mg) (mean value), 20 min” value [2, 7] of the same molecule?
A: 21.91 mg

Q: What about the “Salivation (mg) (mean value), 30 min” value [2, 7] of the same molecule?
A: 7.85 mg

Q: What about the “Salivation (mg) (mean value), 40 min” value [2, 7] of the same molecule?
A: 5.06 mg

Q: What about the “Salivation (mg) (mean value), 50 min” value [2, 7] of the same molecule?
A: 4.73 mg

Q: And the “Salivation (mg) (mean value), 60 min” value [2, 7]?
A: 3.5 mg

Q: What about the “Salivation (mg) (mean value), Total” value [2, 7] of the same molecule?
A: 88.27 mg

Q: What about the “Salivation (mg) (mean value), 10 min” value [2, 8] of the same molecule?
A: 7 mg

Q: What about the “Salivation (mg) (mean value), 20 min” value [2, 8] of the same molecule?
A: 3.13 mg

Q: What about the “Salivation (mg) (mean value), 30 min” value [2, 8] of the same molecule?
A: 3.17 mg

Q: What about the “Salivation (mg) (mean value), 40 min” value [2, 8] of the same molecule?
A: 2.15 mg

Q: And the “Salivation (mg) (mean value), 50 min” value [2, 8]?
A: 2.49 mg

Q: What about the “Salivation (mg) (mean value), 60 min” value [2, 8] of the same molecule?
A: 1.37 mg

Q: And the “Salivation (mg) (mean value), Total” value [2, 8]?
A: 19.31 mg

Q: What about the “Salivation (mg) (mean value), 10 min” value [2, 9] of the same molecule?
A: 7.23 mg

Q: And the “Salivation (mg) (mean value), 20 min” value [2, 9]?
A: 2.83 mg

Q: What about the “Salivation (mg) (mean value), 30 min” value [2, 9] of the same molecule?
A: 1.21 mg

Q: What about the “Salivation (mg) (mean value), 40 min” value [2, 9] of the same molecule?
A: 4.11 mg

Q: What about the “Salivation (mg) (mean value), 50 min” value [2, 9] of the same molecule?
A: 2.5 mg

Q: And the “Salivation (mg) (mean value), 60 min” value [2, 9]?
A: 1.8 mg

Q: And the “Salivation (mg) (mean value), Total” value [2, 9]?
A: 19.69 mg

Q: What about the “Fesoterodine effect with Compound 1 on salivation” value ([2]; Fesoterodine 0.0078-0.5 mg/mL IV prior to Compound 1) of the same molecule?
A: significant decrease of salivation in a consistent dose-responsive manner
